Measured values reported in US10316049B2, “Tank-binding kinase inhibitor compounds” (Gilead Sciences, Inc., priority 2015, dated 2019).

How the values were obtained:
[1] = target: T1, TBK1 (Homo sapiens, UniProt Q9UHD2); assay: TR-FRET enzymatic activity assay, TBK1; assay type: biochemical; further: full length recombinant TBK1 at 2.5 nM
T1 construct: TBK1 and IKKε were expressed and purified as full length recombinant proteins; made in house
T1 sequence (Q9UHD2 1-729): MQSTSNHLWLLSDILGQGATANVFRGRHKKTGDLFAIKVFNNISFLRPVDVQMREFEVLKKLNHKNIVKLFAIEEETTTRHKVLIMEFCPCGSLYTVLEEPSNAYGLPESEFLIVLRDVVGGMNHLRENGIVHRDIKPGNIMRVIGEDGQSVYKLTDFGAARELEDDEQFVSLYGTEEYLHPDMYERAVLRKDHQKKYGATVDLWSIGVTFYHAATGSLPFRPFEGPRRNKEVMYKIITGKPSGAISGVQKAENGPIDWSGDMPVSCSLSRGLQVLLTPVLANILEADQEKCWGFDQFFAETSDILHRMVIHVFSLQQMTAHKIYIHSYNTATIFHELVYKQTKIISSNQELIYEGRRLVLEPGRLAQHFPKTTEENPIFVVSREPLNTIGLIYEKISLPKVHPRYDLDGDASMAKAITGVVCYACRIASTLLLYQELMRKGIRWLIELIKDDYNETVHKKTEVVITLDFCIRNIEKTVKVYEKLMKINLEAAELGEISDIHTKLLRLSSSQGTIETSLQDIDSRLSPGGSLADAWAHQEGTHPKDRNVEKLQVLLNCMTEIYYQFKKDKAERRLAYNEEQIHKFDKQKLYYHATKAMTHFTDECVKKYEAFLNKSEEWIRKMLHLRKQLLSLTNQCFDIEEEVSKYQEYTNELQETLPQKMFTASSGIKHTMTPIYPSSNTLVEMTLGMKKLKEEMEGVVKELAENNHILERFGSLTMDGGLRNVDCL
Method in brief: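 TR-FRET detected phosphorylation of a biotinylated serine/threonine peptide using 125 nM streptavidin XL665 plus europium-labelled anti-phospho antibody. Reactions with full-length recombinant kinase ran 240 min at 25 °C before EDTA quench. Values are geometric-mean IC50s (n ≥ 4) from four-parameter dose-response fits against staurosporine and DMSO controls.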

[2] = target: T2, IKKε (Homo sapiens, UniProt Q14164); assay: TR-FRET enzymatic activity assay, IKKε; assay type: biochemical; settings: read-out: IKKϵ IC50; further: full length recombinant IKKε at 0.3 nM
T2 construct: TBK1 and IKKε were expressed and purified as full length recombinant proteins; made in house
T2 sequence (Q14164 1-716): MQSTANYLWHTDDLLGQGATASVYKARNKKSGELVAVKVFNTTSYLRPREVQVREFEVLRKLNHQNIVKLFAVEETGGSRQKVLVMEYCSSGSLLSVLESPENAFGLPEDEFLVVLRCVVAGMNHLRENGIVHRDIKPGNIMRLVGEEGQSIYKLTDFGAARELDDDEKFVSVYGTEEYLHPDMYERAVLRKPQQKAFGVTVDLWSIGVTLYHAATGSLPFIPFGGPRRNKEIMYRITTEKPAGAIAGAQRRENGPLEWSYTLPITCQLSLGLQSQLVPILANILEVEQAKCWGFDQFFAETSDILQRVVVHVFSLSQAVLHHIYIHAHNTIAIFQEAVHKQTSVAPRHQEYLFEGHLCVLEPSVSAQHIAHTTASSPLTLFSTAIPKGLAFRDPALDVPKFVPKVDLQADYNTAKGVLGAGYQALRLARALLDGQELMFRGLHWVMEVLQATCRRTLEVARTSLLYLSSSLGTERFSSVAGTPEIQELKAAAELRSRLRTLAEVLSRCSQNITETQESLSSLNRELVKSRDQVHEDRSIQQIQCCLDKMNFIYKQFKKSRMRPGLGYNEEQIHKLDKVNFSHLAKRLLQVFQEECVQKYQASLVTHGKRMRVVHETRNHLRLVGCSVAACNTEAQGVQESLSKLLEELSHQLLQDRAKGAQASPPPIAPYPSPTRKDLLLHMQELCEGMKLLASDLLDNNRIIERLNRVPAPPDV
Method in brief: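 IC50 values are geometric means of at least four determinations, fitted to a four-parameter curve after normalising to 1 μM staurosporine and DMSO. Signal: Eu-cryptate anti-phospho antibody plus 125 nM streptavidin-XL665 on a biotinylated peptide. Full-length recombinant enzyme reacted 240 min, 25 °C, then EDTA-quenched.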

Row | SMILES | IC50 [1] [nM] | IC50 [2] [nM]
1 | CON(C)C(=O)[C@@H]1C[C@H]1C(=O)Nc1cc(-c2ccc(OC3CCOCC3)c(C#N)c2)ccn1 (relative stereo) [Example 38] | 305 | 253
2 | COc1cc(-c2ccnc(NC(=O)C3CC3)c2)cc(C#N)c1OC1CCOCC1 [Example 7, N-(4-(3-cyano-5-methoxy-4-((tetrahydro-2H-pyran-4-yl)oxy)phenyl)pyridin-2-yl)cyclopropanecarboxamide] | 492 | > 1000
3 | N#Cc1cc(-c2ccnc(NC(=O)C3CC3)c2)ncc1O[C@H]1CCN(C(=O)CO)C[C@H]1F [Example 24, N-(4-cyano-5-(((3R,4S)-3-fluoro-1-(2-hydroxyacetyl)piperidin-4-yl)oxy)-[2,4′-bipyridin]-2′-yl)cyclopropanecarboxamide] | 86.1 | 192
4 | N#Cc1cc(-c2ccnc(NC(=O)C3CC3)c2)ccc1N1CCC[C@H]1C(=O)O [Example 26, (2-Cyano-4-(2-(cyclopropanecarboxamido)pyridin-4-yl)phenyl)-L-proline] | 755 | > 1000
5 | N#Cc1cc(-c2ccnc(NC(=O)[C@@H]3C[C@H]3c3cccnc3)c2)ccc1O[C@H]1CCN(C(=O)[C@@H](O)CO)CC1(F)F [Example 133, (1,2-Trans)-N-(4-(3-cyano-4-(((S)-1-((S)-2,3-dihydroxypropanoyl)-3,3-difluoropiperidin-4-yl)oxy)phenyl)pyridin-2-yl)-2-(pyridin-3-yl)cyclopropane-1-carboxamide] | 6.4 | 9.9
6 | N#Cc1cc(-c2cc(NC(=O)C3CC3)ncn2)ccc1O [Example 109, N-(6-(3-cyano-4-hydroxyphenyl)pyrimidin-4-yl)cyclopropanecarboxamide] | 826 | > 1000
7 | N#Cc1cc(-c2ccnc(NC(=O)[C@@H]3C[C@@H]3CO)c2)ccc1O[C@H]1CCN(C(=O)CO)C[C@H]1F [Example 74, (1,2-cis)-N-(4-(3-Cyano-4-(((3R,4S)-3-fluoro-1-(2-hydroxyacetyl)piperidin-4-yl)oxy)phenyl)pyridin-2-yl)-2-(hydroxymethyl)cyclopropane-1-carboxamide] | 99.3 | 145
8 | C[C@H]1CCCN1c1ccc(-c2ccnc(NC(=O)C3CC3)c2)cc1C#N [Example 92, (S)—N-(4-(3-cyano-4-(2-methylpyrrolidin-1-yl)phenyl)pyridin-2-yl)cyclopropanecarboxamide] | 20.3 | 128
9 | N#Cc1cc(-c2ccnc(NC(=O)[C@H]3C[C@@H]3F)c2)ccc1O[C@H]1CCN(C(=O)CO)C[C@H]1F [Example 60, (1R,2S)—N-(4-(3-cyano-4-(((3R,4S)-3-fluoro-1-(2-hydroxyacetyl)piperidin-4-yl)oxy)phenyl)pyridin-2-yl)-2-fluorocyclopropanecarboxamide] | 15.7 | 46.3
10 | N#Cc1cc(-c2ccnc(NC(=O)C3CC3C(F)(F)F)c2)ccc1O[C@H]1CCN(C(=O)CO)C[C@H]1F (stereo partly drawn) [Example 66, N-(4-(3-Cyano-4-(((3R,4S)-3-fluoro-1-(2-hydroxyacetyl)piperidin-4-yl)oxy)phenyl)pyridin-2-yl)-2-(trifluoromethyl)cyclopropane-1-carboxamide] | 28.3 | 108
11 | N#Cc1cc(-c2cc(NC(=O)C3CC3)ncn2)ccc1C(=O)NCC(F)(F)F [Example 54, 2-cyano-4-(6-(cyclopropanecarboxamido)pyrimidin-4-yl)-N-(2,2,2-trifluoroethyl)benzamide] | 883 | > 1000
12 | Cn1cc([C@@H]2C[C@H]2C(=O)Nc2cc(-c3ccc(O[C@H]4CCN(C(=O)[C@@H](O)CO)C[C@H]4F)c(C#N)c3)ncn2)cn1 [Example 146, (1,2-Trans)-N-(6-(3-cyano-4-(((3R,4S)-1-((S)-2,3-dihydroxypropanoyl)-3-fluoropiperidin-4-yl)oxy)phenyl)pyrimidin-4-yl)-2-(1-methyl-1H-pyrazol-4-yl)cyclopropane-1-carboxamide] | 16.1 | 30.8
13 | N#Cc1cc(-c2cc(NC(=O)C3CC3)ncn2)ccc1C(=O)NCC(F)F [Example 53, 2-cyano-4-(6-(cyclopropanecarboxamido)pyrimidin-4-yl)-N-(2,2-difluoroethyl)benzamide] | 762 | > 1000
14 | N#Cc1cc(-c2cc(NC(=O)[C@@H]3C[C@H]3c3cccnc3)ncn2)ccc1O[C@H]1CCN(C(=O)CO)CC1(F)F [Example 129, (1,2-Trans)-N-(6-(3-cyano-4-(((S)-3,3-difluoro-1-(2-hydroxyacetyl)piperidin-4-yl)oxy)phenyl)pyrimidin-4-yl)-2-(pyridin-3-yl)cyclopropane-1-carboxamide] | 9.3 | 32.2
15 | N#Cc1cc(-c2cc(NC(=O)C3CC3)ncn2)ccc1O[C@@H]1CCN(C(=O)CO)C[C@H]1F [Example 111, N-(6-(3-cyano-4-(((3R,4R)-3-fluoro-1-(2-hydroxyacetyl)piperidin-4-yl)oxy)phenyl)pyrimidin-4-yl)cyclopropanecarboxamide] | 105 | 254
16 | N#Cc1cc(-c2ccnc(NC(=O)C3CC3c3nc[nH]n3)c2)ccc1O[C@H]1CCN(C(=O)CO)C[C@H]1F (stereo partly drawn) [Example 76, N-(4-(3-Cyano-4-(((3R,4S)-3-fluoro-1-(2-hydroxyacetyl)piperidin-4-yl)oxy)phenyl)pyridin-2-yl)-2-(1H-1,2,4-triazol-3-yl)cyclopropane-1-carboxamide] | 256 | 357
17 | N#Cc1cc(-c2ccnc(NC(=O)[C@@H]3C[C@H]3c3cccnc3)c2)ccc1O[C@H]1CCN(C(=O)CO)CC1(F)F [Example 134, (1,2-Trans)-N-(4-(3-cyano-4-(((S)-3,3-difluoro-1-(2-hydroxyacetyl)piperidin-4-yl)oxy)phenyl)pyridin-2-yl)-2-(pyridin-3-yl)cyclopropane-1-carboxamide] | 7.4 | 10.9
18 | Cn1cc([C@@H]2C[C@H]2C(=O)Nc2cc(-c3ccc(O[C@H]4CCN(C(=O)[C@@H](O)CO)C[C@H]4F)c(C#N)c3)ccn2)cn1 [Example 130, (1,2-Trans)-N-(4-(3-cyano-4-(((3R,4S)-1-((S)-2,3-dihydroxypropanoyl)-3-fluoropiperidin-4-yl)oxy)phenyl)pyridin-2-yl)-2-(1-methyl-1H-pyrazol-4-yl)cyclopropane-1-carboxamide] | 6.1 | 15.6
19 | N#Cc1cc(-c2ccnc(NC(=O)C3CC3C#N)c2)ccc1O[C@H]1CCN(C(=O)CO)C[C@H]1F (stereo partly drawn) [Example 67, 2-Cyano-N-(4-(3-cyano-4-(((3R,4S)-3-fluoro-1-(2-hydroxyacetyl)piperidin-4-yl)oxy)phenyl)pyridin-2-yl)cyclopropane-1-carboxamide] | 26.1 | 68.4
20 | N#Cc1cc(-c2ccnc(NC(=O)[C@@H]3C[C@H]3c3cnco3)c2)ccc1OC1CCOCC1 (relative stereo) [Example 43, (1,2-trans)-N-(4-(3-cyano-4-((tetrahydro-2H-pyran-4-yl)oxy)phenyl)pyridin-2-yl)-2-(oxazol-5-yl)cyclopropane-1-carboxamide] | 61.3 | 146
21 | Cn1cnc(C2CC2C(=O)Nc2cc(-c3ccc(O[C@H]4CCN(C(=O)CO)C[C@H]4F)c(C#N)c3)ccn2)n1 (stereo partly drawn) [Example 145, N-(4-(3-Cyano-4-(((3R,4S)-3-fluoro-1-(2-hydroxyacetyl)piperidin-4-yl)oxy)phenyl)pyridin-2-yl)-2-(1-methyl-1H-1,2,4-triazol-3-yl)cyclopropane-1-carboxamide] | > 1000 | > 1000
